This assay has as its system Escherichia coli ATCC 25922. Kind of assay: Minimum inhibitory concentration (MIC), CLSI broth micro-dilution, E. coli. The format is cell-based. Conditions: Escherichia coli. The method, then:
In vitro antimicrobial activity of each compound was determined by measuring minimal inhibitor concentrations (MICs) using the broth micro-dilution technique as approved by the Clinical and Laboratory Standards Institute (CLSI) (Methods for Dilution Antimicrobial Susceptibility Tests for Bacteria that Grow Aerobically; Approved Standard-Eighth Edition. CLSI document M07-A8. Wayne, PA: Clinical and Laboratroy Standards; 2009). Antibacterial activity was measure against two strains of bacteria: a Methicillin Resistant Staphylococcus aureus strain USA 200, (S. aureus) and Escherichia coli ATCC 25922 (E. coli), a clinically relevant Gram-negative strain. Cells were inoculated onto plates of Trypyticase Soy Agar or Luria Agar respectively and grown at 35° C. for 20 hours. Inocula suspensions were prepared by scraping cells into 1 mL of testing media (cation adjusted Mueller Hinton Broth supplemented with 0.002% v/v Tween-80) and diluting to a final OD600nm of 0.01.
Test compounds were prepared in DMSO at a concentration of 10 mg/mL. In protocol 1, the compound stocks were diluted into testing media at a concentration of 64 µg/ml and serial 2-fold dilutions were made in the same media, in 96-well U bottom microtiter dishes, for a total of 10 compound concentrations. In protocol 2, the compound stocks were diluted into testing media at a concentration of 4 µg/mL and serial 2-fold dilutions were made in the same media, in 96-well U bottom microtiter dishes, for a total of 10 compound concentrations. In protocol 3, compound stocks were diluted into testing media at a concentration of 0.5 μg/mL, with serial 2-fold dilutions conducted as described above. In protocol 4, compound stocks were diluted into testing media at a concentration of […], with serial 2-fold dilutions conducted as described above. Inocula suspensions were added to the 2-fold serial dilutions of test compounds to a final density of GD OD600nm of 0.0005 and incubated at 35° C. for 22 hours.
(Broth dilution looks for growth in wells or tubes with falling amounts of substance.)

Setting [1] is: ATCC25922, 22 h, Table 6, cation adjusted Mueller Hinton Broth + 0.002% Tween-80, 35° C.
Setting [2] is: ATCC25922, Table 6, cation adjusted Mueller Hinton Broth + 0.002% Tween-80, 35° C., 22 hours.

Each structure is given as a SMILES string.

The source of these data is US20260274892A1, “MACROCYCLIC BROAD SPECTRUM ANTIBIOTICS” (RQx Pharmaceuticals, Inc., priority 2017, published 2026).

Turning to `Cc1nc(-c2ccc(N3C[C@H](C)C[C@H](C)C3)cc2)nc(C)c1C(=O)N[C@@H](CCN)C(=O)N(C)[C@@H]1C(=O)N[C@@H](C)C(=O)N[C@H](C(=O)NCC#N)Cc2ccc(OCCN)c(c2)-c2cc1ccc2OCCN` (racemic) [Compound 327, rac-(8S,11S,14S)-3,18-bis(2-aminoethoxy)-N-(cyanomethyl)-11-methyl-14-[methyl-[rac-(2S)-4-amino-2-[[4,6-dimethyl-2-[4-[rac (3S,5R)-3,5-dimethyl-1-piperidyl]phenyl]pyrimidine-5-carbonyl]amino]butanoyl]amino]-10,13-dioxo-9,12-diazatricyclo[13.3.1.12,6]icosa-1(18),2(20),3,5,15(19),16-hexaene-8-carboxamide], the MIC (usually the smallest concentration in the dilution series that meets the test's criterion for growth inhibition) under setting [1] turned out to be 0.13 µM.

For the compound `Cc1nc(-c2ccc(OC3(C)CC3)cc2)nc(C)c1C(=O)N[C@@H](CCN)C(=O)N(C)[C@@H]1C(=O)N[C@@H](C)C(=O)N[C@H](C(=O)NCC#N)Cc2ccc(OCCN)c(c2)-c2cc1ccc2OCCN` (racemic) [Compound 344, rac-(8S,11S,14S)-3,18-bis(2-aminoethoxy)-N-(cyanomethyl)-11-methyl-14-[methyl-[rac-(2S)-4-amino-2-[[4,6-dimethyl-2-[4-(1-methylcyclopropoxy)phenyl]pyrimidine-5-carbonyl]amino]butanoyl]amino]-10,13-dioxo-9,12-diazatricyclo[13.3.1.12,6]icosa-1(18),2(20),3,5,15(19),16-hexaene-8-carboxamide], the MIC under setting [2] was 0.38 µM.

Take `CCC1(Oc2ccc(-c3nc(C)c(C(=O)N[C@@H](CCN)C(=O)N(C)[C@@H]4C(=O)N[C@@H](C)C(=O)N[C@H](C(=O)NCC#N)Cc5ccc(OCCN)c(c5)-c5cc4ccc5OCCN)c(C)n3)cc2)CC1` (racemic) [Compound 345, rac-(8S,11S,14S)-3,18-bis(2-aminoethoxy)-N-(cyanomethyl)-11-methyl-14-[methyl-[rac-(2S)-4-amino-2-[[2-[4-(1-ethylcyclopropoxy)phenyl]-4,6-dimethyl-pyrimidine-5-carbonyl]amino]butanoyl]amino]-10,13-dioxo-9,12-diazatricyclo[13.3.1.12,6]icosa-1(18),2(20),3,5,15(19),16-hexaene-8-carboxamide]: the MIC under setting [2] was found to be 0.25 µM.

In the case of `CCCCOc1c(F)c(F)c(-c2nc(C)c(C(=O)N[C@@H](CCN)C(=O)N(C)[C@@H]3C(=O)N[C@@H](C)C(=O)N[C@H](C(=O)NCC#N)Cc4ccc(OCCN)c(c4)-c4cc3ccc4OCCN)c(C)n2)c(F)c1F` (racemic) [Compound 351, rac-(8S,11S,14S)-3,18-bis(2-aminoethoxy)-N-(cyanomethyl)-11-methyl-14-[methyl-[rac-(2S)-4-amino-2-[[2-(4-butoxy-2,3,5,6-tetrafluoro-phenyl)-4,6-dimethyl-pyrimidine-5-carbonyl]amino]butanoyl]amino]-10,13-dioxo-9,12-diazatricyclo[13.3.1.12,6]icosa-1(18),2(20),3,5,15(19),16-hexaene-8-carboxamide], under setting [1], the minimal inhibitory concentration (MIC) was 0.25 µM.

For `Cc1nc(Oc2ccc(C(C)(C)C)cc2)nc(C)c1C(=O)N[C@@H](CCN)C(=O)N(C)[C@@H]1C(=O)N[C@@H](C)C(=O)N[C@H](C(=O)NCC#N)Cc2ccc(OCCN)c(c2)-c2cc1ccc2OCCN` (racemic) [Compound 353, rac-(8S,11S,14S)-3,18-bis(2-aminoethoxy)-N-(cyanomethyl)-11-methyl-14-[methyl-[rac-(2S)-4-amino-2-[[2-(4-tert-butylphenoxy)-4,6-dimethyl-pyrimidine-5-carbonyl]amino]butanoyl]amino]-10,13-dioxo-9,12-diazatricyclo[13.3.1.12,6]icosa-1(18),2(20),3,5,15(19),16-hexaene-8-carboxamide], the MIC under setting [2] was found to be 2 µM.

Take `Cc1nc(-c2ccc(OCCCCC(C)(C)C)cc2)nc(C)c1C(=O)N[C@@H](CCN)C(=O)N(C)[C@@H]1C(=O)N[C@@H](C)C(=O)N[C@H](C(=O)NCC#N)Cc2ccc(OCCN)c(c2)-c2cc1ccc2OCCN` (racemic) [Compound 357, rac-(8S,11S,14S)-3,18-bis(2-aminoethoxy)-N-(cyanomethyl)-11-methyl-14-[methyl-[rac-(2S)-4-amino-2-[[2-[4-(5,5-dimethylhexoxy)phenyl]-4,6-dimethyl-pyrimidine-5-carbonyl]amino]butanoyl]amino]-10,13-dioxo-9,12-diazatricyclo[13.3.1.12,6]icosa-1(18),2(20),3,5,15(19),16-hexaene-8-carboxamide]: under setting [1], the MIC was 0.19 µM.

As to `Cc1cc(-c2ccc(C(C)(C)C)cc2)nc(C)c1C(=O)N[C@@H](CCN)C(=O)N(C)[C@@H]1C(=O)N[C@@H](C)C(=O)N[C@H](C(=O)NCC#N)Cc2ccc(OCCN)c(c2)-c2cc1ccc2OCCN` (racemic) [Compound 358, rac-(8S,11S,14S)-3,18-bis(2-aminoethoxy)-N-(cyanomethyl)-11-methyl-14-[methyl-[rac-(2S)-4-amino-2-[[6-(4-tert-butylphenyl)-2,4-dimethyl-pyridine-3-carbonyl]amino]butanoyl]amino]-10,13-dioxo-9,12-diazatricyclo[13.3.1.12,6]icosa-1(18),2(20),3,5,15(19),16-hexaene-8-carboxamide], under setting [2], the MIC is 0.2 µM.

For `CCCCc1ccc(-c2cc(C)c(C(=O)N[C@@H](CCN)C(=O)N(C)[C@@H]3C(=O)N[C@@H](C)C(=O)N[C@H](C(=O)NCC#N)Cc4ccc(OCCN)c(c4)-c4cc3ccc4OCCN)c(C)n2)nc1` (racemic) [Compound 365, rac-(8S,11S,14S)-3,18-bis(2-aminoethoxy)-N-(cyanomethyl)-11-methyl-14-[methyl-[rac-(2S)-4-amino-2-[[6-(5-butyl-2-pyridyl)-2,4-dimethyl-pyridine-3-carbonyl]amino]butanoyl]amino]-10,13-dioxo-9,12-diazatricyclo[13.3.1.12,6]icosa-1(18),2(20),3,5,15(19),16-hexaene-8-carboxamide], under setting [2], the minimum inhibitory concentration (MIC) came to 0.31 µM.

Regarding `CCCCOc1c(F)c(F)c(-c2cc(C)c(C(=O)N[C@@H](CCN)C(=O)N(C)[C@@H]3C(=O)N[C@@H](C)C(=O)N[C@H](C(=O)NCC#N)Cc4ccc(OCCN)c(c4)-c4cc3ccc4OCCN)c(C)n2)c(F)c1F` (racemic) [Compound 367, rac-(8S,11S,14S)-3,18-bis(2-aminoethoxy)-N-(cyanomethyl)-11-methyl-14-[methyl-[rac-(2S)-4-amino-2-[[6-(4-butoxy-2,3,5,6-tetrafluoro-phenyl)-2,4-dimethyl-pyridine-3-carbonyl]amino]butanoyl]amino]-10,13-dioxo-9,12-diazatricyclo[13.3.1.12,6]icosa-1(18),2(20),3,5,15(19),16-hexaene-8-carboxamide], under setting [1], the MIC was 0.5 µM.

For `Cc1cc(-c2ccc(C(C)(C)C)cc2[N+](=O)[O-])nc(C)c1C(=O)N[C@@H](CCN)C(=O)N(C)[C@@H]1C(=O)N[C@@H](C)C(=O)N[C@H](C(=O)NCC#N)Cc2ccc(OCCN)c(c2)-c2cc1ccc2OCCN` (racemic) [Compound 368, rac-(8S,11S,14S)-3,18-bis(2-aminoethoxy)-N-(cyanomethyl)-11-methyl-14-[methyl-[rac-(2S)-4-amino-2-[[6-(4-tert-butyl-2-nitro-phenyl)-2,4-dimethyl-pyridine-3-carbonyl]amino]butanoyl]amino]-10,13-dioxo-9,12-diazatricyclo[13.3.1.12,6]icosa-1(18),2(20),3,5,15(19),16-hexaene-8-carboxamide], under setting [2], the MIC came to 0.5 µM.

Turning to `Cc1cc(-c2ccc(C(C)(C)C)cc2)cc(N)c1C(=O)N[C@@H](CCN)C(=O)N(C)[C@@H]1C(=O)N[C@@H](C)C(=O)N[C@H](C(=O)NCC#N)Cc2ccc(OCCN)c(c2)-c2cc1ccc2OCCN` (racemic) [Compound 373, rac-(8S,11S,14S)-3,18-bis(2-aminoethoxy)-N-(cyanomethyl)-11-methyl-14-[methyl-[rac-(2S)-4-amino-2-[[2-amino-4-(4-tert-butylphenyl)-6-methyl-benzoyl]amino]butanoyl]amino]-10,13-dioxo-9,12-diazatricyclo[13.3.1.12,6]icosa-1(18),2(20),3,5,15(19),16-hexaene-8-carboxamide], the MIC under setting [1] was 0.13 µM.

`Cc1c(Oc2ccc(C(C)(C)C)cc2)ccc(C(=O)N[C@@H](CCN)C(=O)N(C)[C@@H]2C(=O)N[C@@H](C)C(=O)N[C@H](C(=O)NCC#N)Cc3ccc(OCCN)c(c3)-c3cc2ccc3OCCN)c1C` (racemic) [Compound 374, rac-(8S,11S,14S)-3,18-bis(2-aminoethoxy)-N-(cyanomethyl)-11-methyl-14-[methyl-[rac-(2S)-4-amino-2-[[4-(4-tert-butylphenoxy)-2,3-dimethyl-benzoyl]amino]butanoyl]amino]-10,13-dioxo-9,12-diazatricyclo[13.3.1.12,6]icosa-1(18),2(20),3,5,15(19),16-hexaene-8-carboxamide]: the MIC under setting [2] worked out at 0.25 µM.
